Measured values reported in paper PMC11007962, “First-in-human study of GFH018, a small molecule inhibitor of transforming growth factor-β receptor I inhibitor, in patients with advanced solid tumors” (BMC Cancer, 2024).
Read-outs that look alike come from different tables or passages of the source.

Tested on: patients with advanced solid tumors
[1] = 5 mg BID 14d-on/14d-off (N = 4)
[2] = 10 mg BID 14d-on/14d-off (N = 3)
[3] = 20 mg BID 14d-on/14d-off (N = 4)
[4] = 30 mg BID 14d-on/14d-off (N = 7)

Experimental: The study consisted of a dose-escalation part followed by an expansion part. In the dose escalation part, a 3-day pharmacokinetic (PK) lead-in period was conducted for a single dose in the first treatment cycle. Patients received GFH018 once on cycle 1 day 1 (C1D1) and underwent serial PK testing over the first 3 days. On C1D4, patients were administered the corresponding dose of GFH018 BID 14 days on/14 days off. The first cycle was defined as 31 days, including 3-day PK leading-in period with GFH018 single dosing and then 14d-on/14d-off dosing schedule. The subsequent cycles were 28 days. The starting dose of GFH018 was 5 mg, with eight planned dose levels up to 85 mg (5, 10, 20, 30, 40, 50, 65, and 85 mg). A modified 3+3 design was used to determine the maximum tolerance dose (MTD) and RDE, guided by safety/tolerability and PK data. Dose-limiting toxicities (DLTs) were evaluated during the first cycle at each dose level. The safety of 85 mg BID, 7 d-on/7 d-off, was explored after confirming the safety of 14 d-on/14 d-off. The DLTs were defined as hematological toxicities, including G4 neutropenia lasting for more than 5 days, G3 febrile neutropenia, G4 anemia, G4 thrombocytopenia, or G3 thrombocytopenia accompanied by bleeding, and ≥ G3 nonhematological toxicity (except for diarrhea, nausea, vomiting, and rash recovering ≤ G2 after supportive treatment within 3 days). The DLTs for cardiac toxicities included ≥ G2 cardiac valve abnormalities, ≥ G2 left ventricular ejection fraction (LVEF) decrease, any cardiovascular impairment shown in imaging, and abnormal highly sensitive troponin (hs-Tn) increased to ≥ twice the baseline in two consecutive tests with an interval ≥ 3 days. In the expansion part, patients were orally administered GFH018 RDE twice daily to further evaluate the safety of RDE and other dose regimens. […] The treatment cycle lasted 28 days.
All enrolled patients were monitored regularly after GFH018 administration. Safety assessments included adverse events (AEs), serious AEs (SAEs), laboratory assessments, vital signs, physical examinations, electrocardiography and echocardiography. AEs were graded according to the NCI Common Terminology Criteria for Adverse Events (NCI-CTCAE) v5.0. All AEs were followed up until they were stable or had recovered to baseline. Adverse events of special interest (AESIs) were predefined as echocardiographic abnormalities such as aggravated stenosis or regurgitation of the heart valves, clinically significant decreases in LVEF, brain natriuretic peptide (BNP) or N-terminal pro-brain natriuretic peptide (NT-proBNP) increases, and hs-Tn increases judged by investigators.
For the safety and efficacy analyses, data from patients who received GFH018 at the same dose in the dose-escalation and expansion cohorts were pooled. The demographic and baseline characteristics were summarized using descriptive methods. Safety and efficacy data were summarized for all patients who received at least one dose of GFH018. The ORR and DCR were summarized by cohort and overall. When the sample size of the analyzed group was ten or more, the Kaplan–Meier method was used to estimate the median PFS and TTP. In this study, treatment-emergent AEs (TEAEs) were defined as AEs that occurred on or after the first dosing date of GFH018 and no later than 30 days after the last dose of GFH018. The incidence and severity of AEs were descriptively summarized according to dose level. The PK parameters of GFH018 were calculated using noncompartmental analysis methods. All plasma PK data were summarized by cohort and visit day or time using descriptive statistics.

Cc1cccc(-c2nn3c(c2-c2ccc4ncnn4c2/C=C/C(N)=O)CCC3)n1 [GFH018]
At least one TEAE [1]: 4 (100%) n (%)
At least one TRAE [1]: 4 (100%) n (%)
TEAE: ALP increased [1]: 0 n (%)
TEAE: ALT increased [1]: 0 n (%)
TEAE: AST increased [1]: 0 n (%)
TEAE: Abdominal distention [1]: 0 n (%)
TEAE: Abdominal pain [1]: 0 n (%)
TEAE: Anemia [1]: 0 n (%)
TEAE: Asthenia [1]: 0 n (%)
TEAE: Bilirubin conjugated increased [1]: 1 (25.0%) n (%)
TEAE: Blood albumin decreased [1]: 2 (50.0%) n (%)
TEAE: Blood bilirubin increased [1]: 0 n (%)
TEAE: C-reactive protein increased [1]: 2 (50.0%) n (%)
TEAE: Constipation [1]: 0 n (%)
TEAE: Decreased appetite [1]: 1 (25.0%) n (%)
TEAE: GGT increased [1]: 1 (25.0%) n (%)
TEAE: Hypoalbuminemia [1]: 0 n (%)
TEAE: LDH increased [1]: 1 (25.0%) n (%)
TEAE: Lymphocyte count decreased [1]: 4 (100%) n (%)
TEAE: Platelet count decreased [1]: 1 (25.0%) n (%)
TEAE: Proteinuria [1]: 1 (25.0%) n (%)
TEAE: Sinus tachycardia [1]: 2 (50.0%) n (%)
TEAE: Urine protein present [1]: 2 (50.0%) n (%)
TEAE: White blood cell count decreased [1]: 1 (25.0%) n (%)
TEAE: White blood cells urine positive [1]: 0 n (%)
TRAE: ALP increased [1]: 0 n (%)
TRAE: ALT increased [1]: 0 n (%)
TRAE: AST increased [1]: 0 n (%)
TRAE: Anemia [1]: 0 n (%)
TRAE: GGT increased [1]: 0 n (%)
TRAE: LDH increased [1]: 0 n (%)
TRAE: Lymphocyte count decreased [1]: 1 (25.0%) n (%)
TRAE: Protein urine present [1]: 1 (25.0%) n (%)
TRAE: Proteinuria [1]: 0 n (%)
Treatment-emergent Proteinuria (grouped PTs), G1 [1]: 1 (25.0) n (%)
Treatment-emergent Proteinuria (grouped PTs), G2 [1]: 2 (50.0) n (%)
Treatment-emergent Proteinuria (grouped PTs), G3 [1]: 0 n (%)
Treatment-emergent Proteinuria (grouped PTs: proteinuria and urine protein present), any grade [1]: 3 (75.0) n (%)
At least one TEAE [2]: 3 (100%) n (%)
At least one TRAE [2]: 3 (100%) n (%)
TEAE: ALP increased [2]: 1 (33.3%) n (%)
TEAE: ALT increased [2]: 1 (33.3%) n (%)
TEAE: AST increased [2]: 0 n (%)
TEAE: Abdominal distention [2]: 0 n (%)
TEAE: Abdominal pain [2]: 0 n (%)
TEAE: Anemia [2]: 1 (33.3%) n (%)
TEAE: Asthenia [2]: 1 (33.3%) n (%)
TEAE: Bilirubin conjugated increased [2]: 0 n (%)
TEAE: Blood albumin decreased [2]: 1 (33.3%) n (%)
TEAE: Blood bilirubin increased [2]: 0 n (%)
TEAE: C-reactive protein increased [2]: 0 n (%)
TEAE: Constipation [2]: 1 (33.3%) n (%)
TEAE: Decreased appetite [2]: 0 n (%)
TEAE: GGT increased [2]: 2 (66.7%) n (%)
TEAE: Hypoalbuminemia [2]: 0 n (%)
TEAE: LDH increased [2]: 1 (33.3%) n (%)
TEAE: Lymphocyte count decreased [2]: 0 n (%)
TEAE: Platelet count decreased [2]: 0 n (%)
TEAE: Proteinuria [2]: 0 n (%)
TEAE: Sinus tachycardia [2]: 0 n (%)
TEAE: Urine protein present [2]: 2 (66.7%) n (%)
TEAE: White blood cell count decreased [2]: 0 n (%)
TEAE: White blood cells urine positive [2]: 0 n (%)
TRAE: ALP increased [2]: 1 (33.3%) n (%)
TRAE: ALT increased [2]: 1 (33.3%) n (%)
TRAE: AST increased [2]: 0 n (%)
TRAE: Anemia [2]: 1 (33.3%) n (%)
TRAE: GGT increased [2]: 2 (66.7%) n (%)
TRAE: LDH increased [2]: 1 (33.3%) n (%)
TRAE: Lymphocyte count decreased [2]: 0 n (%)
TRAE: Protein urine present [2]: 1 (33.3%) n (%)
TRAE: Proteinuria [2]: 0 n (%)
Treatment-emergent Proteinuria (grouped PTs), G1 [2]: 0 n (%)
Treatment-emergent Proteinuria (grouped PTs), G2 [2]: 2 (66.7) n (%)
Treatment-emergent Proteinuria (grouped PTs), G3 [2]: 0 n (%)
Treatment-emergent Proteinuria (grouped PTs: proteinuria and urine protein present), any grade [2]: 2 (66.7) n (%)
At least one TEAE [3]: 4 (100%) n (%)
At least one TRAE [3]: 4 (100%) n (%)
TEAE: ALP increased [3]: 1 (25.0%) n (%)
TEAE: ALT increased [3]: 1 (25.0%) n (%)
TEAE: AST increased [3]: 0 n (%)
TEAE: Abdominal distention [3]: 1 (25.0%) n (%)
TEAE: Abdominal pain [3]: 0 n (%)
TEAE: Anemia [3]: 1 (25.0%) n (%)
TEAE: Asthenia [3]: 2 (50.0%) n (%)
TEAE: Bilirubin conjugated increased [3]: 1 (25.0%) n (%)
TEAE: Blood albumin decreased [3]: 1 (25.0%) n (%)
TEAE: Blood bilirubin increased [3]: 1 (25.0%) n (%)
TEAE: C-reactive protein increased [3]: 0 n (%)
TEAE: Constipation [3]: 0 n (%)
TEAE: Decreased appetite [3]: 0 n (%)
TEAE: GGT increased [3]: 0 n (%)
TEAE: Hypoalbuminemia [3]: 0 n (%)
TEAE: LDH increased [3]: 0 n (%)
TEAE: Lymphocyte count decreased [3]: 0 n (%)
TEAE: Platelet count decreased [3]: 0 n (%)
TEAE: Proteinuria [3]: 2 (50.0%) n (%)
TEAE: Sinus tachycardia [3]: 0 n (%)
TEAE: Urine protein present [3]: 2 (50.0%) n (%)
TEAE: White blood cell count decreased [3]: 1 (25.0%) n (%)
TEAE: White blood cells urine positive [3]: 1 (25.0%) n (%)
TRAE: ALP increased [3]: 0 n (%)
TRAE: ALT increased [3]: 0 n (%)
TRAE: AST increased [3]: 0 n (%)
TRAE: Anemia [3]: 0 n (%)
TRAE: GGT increased [3]: 0 n (%)
TRAE: LDH increased [3]: 0 n (%)
TRAE: Lymphocyte count decreased [3]: 0 n (%)
TRAE: Protein urine present [3]: 1 (25.0%) n (%)
TRAE: Proteinuria [3]: 2 (50.0%) n (%)
Treatment-emergent Proteinuria (grouped PTs), G1 [3]: 3 (75.0) n (%)
Treatment-emergent Proteinuria (grouped PTs), G2 [3]: 1 (25.0) n (%)
Treatment-emergent Proteinuria (grouped PTs), G3 [3]: 0 n (%)
Treatment-emergent Proteinuria (grouped PTs: proteinuria and urine protein present), any grade [3]: 4 (100.0) n (%)
At least one TEAE [4]: 7 (100%) n (%)
At least one TRAE [4]: 7 (100%) n (%)
TEAE: ALP increased [4]: 1 (14.3%) n (%)
TEAE: ALT increased [4]: 2 (28.6%) n (%)
TEAE: AST increased [4]: 3 (42.9%) n (%)
TEAE: Abdominal distention [4]: 2 (28.6%) n (%)
TEAE: Abdominal pain [4]: 2 (28.6%) n (%)
TEAE: Anemia [4]: 3 (42.9%) n (%)
TEAE: Asthenia [4]: 2 (28.6%) n (%)
TEAE: Bilirubin conjugated increased [4]: 2 (28.6%) n (%)
TEAE: Blood albumin decreased [4]: 0 n (%)
TEAE: Blood bilirubin increased [4]: 3 (42.9%) n (%)
TEAE: C-reactive protein increased [4]: 0 n (%)
TEAE: Constipation [4]: 4 (57.1%) n (%)
TEAE: Decreased appetite [4]: 1 (14.3%) n (%)
TEAE: GGT increased [4]: 1 (14.3%) n (%)
TEAE: Hypoalbuminemia [4]: 3 (42.9%) n (%)
TEAE: LDH increased [4]: 3 (42.9%) n (%)
TEAE: Lymphocyte count decreased [4]: 1 (14.3%) n (%)
TEAE: Platelet count decreased [4]: 1 (14.3%) n (%)
TEAE: Proteinuria [4]: 4 (57.1%) n (%)
TEAE: Sinus tachycardia [4]: 1 (14.3%) n (%)
